US5534517A, “(Aryl(alkyl)carbonyl)-heterocyclic compounds and their use in the treatment of anxiety and depression” (Adir Et Compagnie, priority 1993, dated 1996)
Where two headings read alike, the source gives them in different places.

Assays:
[1] = target: T1, 5-HT2 serotoninergic receptors (Rattus norvegicus, UniProt P14842); assay: in-vitro affinity for 5-HT2 serotoninergic receptors, by measuring the displacement of aminoiodoketanserin, on rat frontal cortex preparations; details: read-out: IC50 (concentration inhibiting binding of the labelled ligand by 50%) (converted)
T1 construct: on rat frontal cortex preparations; from tissue; host or cells: rat frontal cortex
T1 sequence (P14842 whole entry): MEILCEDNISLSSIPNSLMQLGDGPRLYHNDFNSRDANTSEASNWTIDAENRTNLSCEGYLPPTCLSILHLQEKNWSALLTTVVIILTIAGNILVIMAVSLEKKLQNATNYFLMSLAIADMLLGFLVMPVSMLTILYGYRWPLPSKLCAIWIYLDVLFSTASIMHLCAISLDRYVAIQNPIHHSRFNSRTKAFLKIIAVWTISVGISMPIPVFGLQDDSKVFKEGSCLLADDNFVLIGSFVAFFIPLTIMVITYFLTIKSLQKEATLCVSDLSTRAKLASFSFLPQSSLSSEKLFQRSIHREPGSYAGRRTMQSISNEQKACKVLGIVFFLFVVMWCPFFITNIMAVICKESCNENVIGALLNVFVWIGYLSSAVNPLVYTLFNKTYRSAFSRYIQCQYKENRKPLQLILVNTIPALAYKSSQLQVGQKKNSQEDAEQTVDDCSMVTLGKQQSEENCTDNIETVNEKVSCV
Description: The in-vitro affinity of the compounds of the invention was determined
for 5-HT2 serotoninergic receptors, by measuring the displacement of aminoiodoketanserin, on rat frontal cortex preparations, […]

[2] = parameters: species or system Rats or mice; details: in vivo

| SMILES | IC50 [1] | further results |
| --- | --- | --- |
| O=C(c1ccc(F)cc1)C1CCN(CCn2c(=O)sc3ccccc32)CC1 [Example 1, 3-{2-[4-(4-FLUOROBENZOYL)PIPERIDINO]ETHYL}BENZOTHIAZOLIN-2-ONE] | 1 nM | – |
| COc1ccccc1N1CCN(CCCCc2ccc3c(c2)sc(=O)n3CCN2CCC(C(=O)c3ccc(F)cc3)CC2)CC1 [Example 3, 3-{2-[4-(4-FLUOROBENZOYL)PIPERIDINO]ETHYL}-6-(4-[4-(2-METHOXY-PHENYL)PIPERAZINYL]BUTYL}BENZOTHIAZOLIN-2-ONE] | 1 nM | – |
| O=C(c1ccc(F)cc1)C1CCN(CCn2c(=O)sc3cc(CCCCN4CCOCC4)ccc32)CC1 [Example 4, 3-{2-[4-(4-FLUOROBENZOYL)PIPERIDINO]ETHYL}-6-(4-MORPHOLINOBUTYL)BENZOTHIAZOLIN-2-ONE] | 0.5 nM | – |
| Cn1c(=O)sc2cc(CCN3CCC(C(=O)c4ccc(F)cc4)CC3)ccc21 [Example 48, 3-METHYL-6-{2-[4-(4-FLUOROBENZOYL)PIPERIDINO]ETHYL}BENZOTHIAZOLIN-2-ONE] | – | inhibition of reaction time which the animal takes to lick its paws [2]: 175% |
| CN1CC[C@]23c4c5ccc(O)c4O[C@H]2[C@@H](O)C=C[C@H]3[C@H]1C5 [morphine, reference compound] | – | inhibition of reaction time which the animal takes to lick its paws ([2]; ip): 129% |
